Activity, inhibition and Ki data for three compounds are collected here from ChEMBL document CHEMBL5108079, “Therapeutic Activity of the Lansoprazole Metabolite 5-Hydroxy Lansoprazole Sulfide in Triple-Negative Breast Cancer by Inhibiting the Enoyl Reductase of Fatty Acid Synthase” (J Med Chem, 2022).

The test system of data set [1] is MDA-MB-231. The experiment in a line: Induction of apoptosis in human MDA-MB-231 cells at 10 uM incubated for 72 hrs by Annexin-V/PI staining based flow cytometric analysis. It is filed as functional, cell-based. For orientation: In flow cytometry, cells or beads pass a laser one at a time.
In data set [2] the test system is MDA-MB-468. Nature of the data set: Induction of apoptosis in human MDA-MB-468 cells assessed as increase in cleaved caspase 3 level incubated for 72 hrs by Western blot analysis. The data set is classed as functional, cell-based. As to conditions: dose 2.5-10 µM, DDE = dose-dependent effect. For orientation: Immunoblotting shows a protein as a band on a membrane.

The test system of data set [3] is MDA-MB-231. The experiment in a line: Induction of apoptosis in human MDA-MB-231 cells assessed as increase in cleaved caspase 3 level incubated for 72 hrs by Western blot analysis. The data set is classed as functional, cell-based. As to conditions: dose 2.5-10 µM, DDE = dose-dependent effect.
Data set [4] relates to MDA-MB-468. Nature of the data set: Induction of DNA damage in human MDA-MB-468 cells nucleus assessed as increase in gamma-H2AX punctate staining at 20 uM by DAPI staining based confocal microscopic imaging analysis. It is filed as functional, cell-based.
Data set [5] is described as follows: Induction of DNA damage in human KTB39 cells assessed as increase in gamma-H2AX level at IC50 concentration by Western blot analysis. The data set is classed as toxicity, cell-based.
A further data set deals with HCC1937. The experiment in a line: Antiproliferative activity against human HCC1937 cells assessed as reduction in cell survival incubated for 72 hrs by methylene blue cell survival assay. It is filed as functional, cell-based.
The subject of data set [6] is MDA-MB-468. Nature of the data set: Induction of DNA damage in human MDA-MB-468 cells assessed as decrease in PARP-1 mRNA level at 2.5 to 10 uM incubated for 72 hrs by RT-PCR analysis. As to conditions: dose 2.5-10 µM. It is filed as functional, cell-based.
The subject of data set [7] is Mus musculus. Nature of the data set: In vivo inhibition of […] in NSG mouse xenografted with human MDA-MB-231 cells assessed as reduction of FASN level in tumor at 100 mg/kg, ip administered once daily for 22 days by immunohistochemical analysis. As to conditions: time 22.0 day. The data set is classed as functional, organism-based.
The subject of data set [8] is MDA-MB-231. The experiment in a line: Effect on cell cycle distribution in human MDA-MB-231 cells assessed as accumulation of cells in sub-G1 phase at 10 uM incubated for 72 hrs by PI staining based flow cytometric analysis. It is filed as functional.
In data set [9] the test system is MDA-MB-468. Nature of the data set: Induction of apoptosis in human MDA-MB-468 cells assessed as increase in cleaved PARP1 level incubated for 72 hrs by Western blot analysis. The data set is classed as functional, cell-based. As to conditions: dose 2.5-10 µM, DDE = dose-dependent effect.
Data set [10] concerns MDA-MB-231. The experiment in a line: Induction of DNA damage in human MDA-MB-231 cells nucleus assessed as increase in gamma-H2AX punctate staining at 10 uM by DAPI staining based confocal microscopic imaging analysis. It is filed as functional, cell-based.
Another data set concerns MDA-MB-436. The experiment in a line: Antiproliferative activity against human MDA-MB-436 cells assessed as reduction in cell survival incubated for 72 hrs by methylene blue cell survival assay. It is filed as functional, cell-based.
Data set [11] relates to MDA-MB-231. The experiment in a line: Induction of apoptosis in human MDA-MB-231 cells assessed as increase in cleaved PARP1 level incubated for 72 hrs by Western blot analysis. It is filed as functional, cell-based. The settings on record: dose 2.5-10 µM, DDE = dose-dependent effect.
Data set [12] has as its system Mus musculus. Nature of the data set: In vivo inhibition of […] in NSG mouse xenografted with human MDA-MB-231 cells assessed as reduction of PARP1 level in tumor at 100 mg/kg, ip administered once daily for 22 days by immunohistochemical analysis. The data set is classed as functional, organism-based. As to conditions: time 22.0 day.
Data set [13] concerns MDA-MB-231. Nature of the data set: Antitumor activity against human MDA-MB-231 cells xenografted in NSG mouse assessed as reduction in tumor wet weight at 100 mg/kg, ip administered once daily for 22 days. It is filed as functional, organism-based. The settings on record: time 22.0 day. For orientation: In xenograft studies the graft and the host belong to different species.

Data set [14] concerns MDA-MB-468. Nature of the data set: Induction of DNA damage in human MDA-MB-468 cells assessed as increase in gamma-H2AX level measured after 72 hrs by Western blot analysis. The data set is classed as functional, cell-based. As to conditions: dose 2.5-10 µM, DDE = dose-dependent effect.
Data set [15] deals with MDA-MB-231. Nature of the data set: Antitumor activity against human MDA-MB-231 cells xenografted in NSG mouse assessed as reduction in tumor growth at 100 mg/kg, ip administered once daily for 22 days. The data set is classed as functional, organism-based. As to conditions: time 22.0 day.
In data set [16] the test system is Mus musculus. Nature of the data set: In vivo inhibition of […] in NSG mouse xenografted with human MDA-MB-231 cells assessed as reduction of PARP1 level in tumor at 100 mg/kg, ip administered once daily for 22 days by Western blot analysis. The data set is classed as functional, organism-based. As to conditions: time 22.0 day.
The subject of data set [17] is Mus musculus. The experiment in a line: In vivo inhibition of […] in NSG mouse xenografted with human MDA-MB-231 cells assessed as increase in gamma-H2AX level in tumor at 100 mg/kg, ip administered once daily for 22 days by immunohistochemical analysis. The data set is classed as functional, organism-based. The settings on record: time 22.0 day.
Data set [18] relates to MDA-MB-231. The experiment in a line: Induction of DNA damage in human MDA-MB-231 cells assessed as inhibition of PARP-1 expression incubated for 72 hrs by Western blot analysis. The data set is classed as functional, cell-based. As to conditions: dose 2.5-10 µM, DDE = dose-dependent effect.
For data set [19], the system named is MDA-MB-468. The experiment in a line: Inhibition of DNA repair activity in human MDA-MB-468 cells assessed as inhibition of NHEJ activity measured every 12 hrs for 72 hrs by luciferase based host cell reactivation assay. It is filed as functional.
Data set [20] can be described thus: Induction of DNA damage in human KTB34 cells assessed as increase in gamma-H2AX level at IC50 concentration by Western blot analysis. It is filed as toxicity, cell-based.
Data set [21] is described as follows: Toxicity in NSG mouse xenografted with human MDA-MB-231 cells assessed as effect on body weight at 100 mg/kg, ip administered once daily for 22 days. The data set is classed as organism-based. As to conditions: in vivo, 528 h, time 22 day.
In data set [22] the test system is Mus musculus. Nature of the data set: In vivo inhibition of […] in NSG mouse xenografted with human MDA-MB-231 cells assessed as reduction of FASN level in tumor at 100 mg/kg, ip administered once daily for 22 days by Western blot analysis. It is filed as functional, organism-based. The settings on record: time 22.0 day.
Data set [23] is described as follows: Induction of DNA damage in human KTB22 cells assessed as increase in gamma-H2AX level at IC50 concentration by Western blot analysis. The data set is classed as toxicity, cell-based.
In data set [24] the test system is MDA-MB-231. Nature of the data set: Antiproliferative activity against human MDA-MB-231 cells assessed as reduction in cell survival incubated for 72 hrs by methylene blue cell survival assay. It is filed as functional, cell-based.
The subject of data set [25] is Mus musculus. The experiment in a line: In vivo inhibition of […] in NSG mouse xenografted with human MDA-MB-231 cells assessed as increase in gamma-H2AX level in tumor at 100 mg/kg, ip administered once daily for 22 days by Western blot analysis. The data set is classed as functional, organism-based. As to conditions: time 22.0 day.
Data set [26] deals with MDA-MB-468. Nature of the data set: Antiproliferative activity against human MDA-MB-468 cells assessed as reduction in cell survival incubated for 72 hrs by methylene blue cell survival assay. The data set is classed as functional, cell-based.
Data set [27] relates to MDA-MB-468. Nature of the data set: Induction of DNA damage in human MDA-MB-468 cells assessed as inhibition of PARP-1 expression incubated for 72 hrs by Western blot analysis. It is filed as functional, cell-based. The settings on record: dose 2.5-10 µM, DDE = dose-dependent effect.
For data set [28], the system named is MDA-MB-231. The experiment in a line: Induction of DNA damage in human MDA-MB-231 cells assessed as decrease in PARP-1 mRNA level at 2.5 to 10 uM incubated for 72 hrs by RT-PCR analysis. The data set is classed as functional, cell-based. The settings on record: dose 2.5-10 µM.
Data set [29] deals with MDA-MB-468. The experiment in a line: Induction of apoptosis in human MDA-MB-468 cells at 20 uM incubated for 72 hrs by Annexin-V/PI staining based flow cytometric analysis. It is filed as functional, cell-based.
The target in data set [30] is T1, Fatty acid synthase (Homo sapiens, UniProt P49327). Nature of the data set: Inhibition of FASN in human MDA-MB-231 cells overexpressing FASN assessed as decrease in endogenous FFA level at IC50 concentration incubated for 72 hrs. It is filed as cell-based.
Target sequence in this assay (P49327 whole entry, looked up): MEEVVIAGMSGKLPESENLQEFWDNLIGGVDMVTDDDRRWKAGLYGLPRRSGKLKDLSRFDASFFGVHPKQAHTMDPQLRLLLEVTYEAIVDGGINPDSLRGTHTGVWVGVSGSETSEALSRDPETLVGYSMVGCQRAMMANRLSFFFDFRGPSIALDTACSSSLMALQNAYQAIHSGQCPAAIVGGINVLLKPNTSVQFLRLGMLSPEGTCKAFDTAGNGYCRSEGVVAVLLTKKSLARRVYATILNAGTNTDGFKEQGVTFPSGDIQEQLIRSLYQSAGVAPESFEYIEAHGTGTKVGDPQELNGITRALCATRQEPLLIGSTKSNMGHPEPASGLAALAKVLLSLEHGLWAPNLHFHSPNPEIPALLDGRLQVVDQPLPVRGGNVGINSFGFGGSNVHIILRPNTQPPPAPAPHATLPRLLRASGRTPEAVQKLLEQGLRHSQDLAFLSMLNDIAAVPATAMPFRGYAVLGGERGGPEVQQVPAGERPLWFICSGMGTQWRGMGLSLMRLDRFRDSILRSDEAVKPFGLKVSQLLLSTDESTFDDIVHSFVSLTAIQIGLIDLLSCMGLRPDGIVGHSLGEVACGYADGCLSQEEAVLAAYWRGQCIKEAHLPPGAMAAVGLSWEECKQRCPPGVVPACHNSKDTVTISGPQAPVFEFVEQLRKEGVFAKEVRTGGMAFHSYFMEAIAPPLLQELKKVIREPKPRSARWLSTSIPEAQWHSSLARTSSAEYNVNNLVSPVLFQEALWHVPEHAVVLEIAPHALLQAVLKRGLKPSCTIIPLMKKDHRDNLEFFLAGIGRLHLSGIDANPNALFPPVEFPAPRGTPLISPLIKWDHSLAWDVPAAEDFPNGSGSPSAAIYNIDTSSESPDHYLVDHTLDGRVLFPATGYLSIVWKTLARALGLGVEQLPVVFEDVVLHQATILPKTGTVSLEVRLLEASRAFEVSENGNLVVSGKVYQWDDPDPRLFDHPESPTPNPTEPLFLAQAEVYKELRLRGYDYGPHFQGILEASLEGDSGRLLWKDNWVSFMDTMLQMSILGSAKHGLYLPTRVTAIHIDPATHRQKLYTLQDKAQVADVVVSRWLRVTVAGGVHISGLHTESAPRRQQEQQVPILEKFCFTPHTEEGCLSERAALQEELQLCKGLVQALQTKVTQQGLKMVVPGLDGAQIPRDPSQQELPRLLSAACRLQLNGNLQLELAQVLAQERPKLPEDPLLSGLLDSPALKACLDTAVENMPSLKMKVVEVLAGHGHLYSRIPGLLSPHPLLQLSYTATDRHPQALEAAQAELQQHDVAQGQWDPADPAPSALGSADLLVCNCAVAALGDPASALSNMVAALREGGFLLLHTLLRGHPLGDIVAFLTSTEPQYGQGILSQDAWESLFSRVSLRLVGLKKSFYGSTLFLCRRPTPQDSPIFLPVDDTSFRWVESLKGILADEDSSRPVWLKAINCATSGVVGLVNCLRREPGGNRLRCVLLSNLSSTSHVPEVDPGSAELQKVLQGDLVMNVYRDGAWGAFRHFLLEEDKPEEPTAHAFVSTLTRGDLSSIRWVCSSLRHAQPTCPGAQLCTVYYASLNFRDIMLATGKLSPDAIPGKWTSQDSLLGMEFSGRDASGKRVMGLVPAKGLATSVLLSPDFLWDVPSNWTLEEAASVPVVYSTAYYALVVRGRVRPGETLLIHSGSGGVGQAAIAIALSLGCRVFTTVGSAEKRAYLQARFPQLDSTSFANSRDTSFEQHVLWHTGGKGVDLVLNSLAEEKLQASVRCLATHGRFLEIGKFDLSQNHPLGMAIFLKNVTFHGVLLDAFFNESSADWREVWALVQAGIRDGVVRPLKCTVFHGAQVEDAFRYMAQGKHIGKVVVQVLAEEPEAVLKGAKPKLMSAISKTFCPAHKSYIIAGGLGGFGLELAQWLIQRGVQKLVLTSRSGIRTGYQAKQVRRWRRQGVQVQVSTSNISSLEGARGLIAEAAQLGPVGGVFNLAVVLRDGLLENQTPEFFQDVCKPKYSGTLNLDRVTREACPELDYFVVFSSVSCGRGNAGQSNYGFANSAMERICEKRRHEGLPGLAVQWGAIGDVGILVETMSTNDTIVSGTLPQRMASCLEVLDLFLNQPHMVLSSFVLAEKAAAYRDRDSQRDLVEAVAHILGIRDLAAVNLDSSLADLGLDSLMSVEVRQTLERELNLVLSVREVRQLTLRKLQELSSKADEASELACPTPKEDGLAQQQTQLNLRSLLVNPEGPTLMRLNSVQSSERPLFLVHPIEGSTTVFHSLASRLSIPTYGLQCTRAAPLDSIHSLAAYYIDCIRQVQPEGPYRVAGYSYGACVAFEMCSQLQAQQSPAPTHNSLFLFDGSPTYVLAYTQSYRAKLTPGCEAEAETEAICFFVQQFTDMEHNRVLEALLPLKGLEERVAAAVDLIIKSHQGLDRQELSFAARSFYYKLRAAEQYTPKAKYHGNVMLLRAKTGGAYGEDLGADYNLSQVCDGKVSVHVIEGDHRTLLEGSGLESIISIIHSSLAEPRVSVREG
Data set [31] deals with MDA-MB-231. The experiment in a line: Inhibition of DNA repair activity in human MDA-MB-231 cells assessed as inhibition of NHEJ activity measured every 12 hrs for 72 hrs by luciferase based host cell reactivation assay. It is filed as functional.
The test system of data set [32] is MDA-MB-231. Nature of the data set: Induction of DNA damage in human MDA-MB-231 cells assessed as increase in gamma-H2AX level measured after 72 hrs by Western blot analysis. It is filed as functional, cell-based. The settings on record: dose 2.5-10 µM, DDE = dose-dependent effect.
Data set [33] concerns MDA-MB-468. The experiment in a line: Induction of ROS production in human MDA-MB-468 cells measured after 2 hrs by fluorescence based assay. The data set is classed as functional, cell-based.
Data set [34] has as its system MDA-MB-231. Nature of the data set: Induction of ROS production in human MDA-MB-231 cells measured after 2 hrs by fluorescence based assay. The data set is classed as functional, cell-based.
Data set [35] addresses T1, Fatty acid synthase. Nature of the data set: Inhibition of human FASN enoyl reductase activity using crotonyl CoA as substrate assessed as inhibition of substrate […] measured every 1 min for 10 mins in the presence of NADPH by fluorescence based assay.
Target sequence in this assay (P49327 whole entry): as the sequence (P49327 whole entry, looked up) above

Active and inactive are the calls of the source. No cut-off for these calls is given here.

Consider `Cc1c(OCC(F)(F)F)ccnc1CSc1nc2ccc(O)cc2[nH]1`, for which the outcome in the data set with MDA-MB-231 [1], in the data set on MDA-MB-468 [4], with HCC1937, with MDA-MB-468 [6], in the data set with MDA-MB-231 [8] and in the data set on MDA-MB-231 [10] was Active. Also, the outcome in the data set on MDA-MB-436, with MDA-MB-231 [13], in the data set with MDA-MB-231 [15], in the data set on MDA-MB-231 [24], in the data set with MDA-MB-468 [26] and with MDA-MB-231 [28] was Active. Besides, the result with MDA-MB-468 [29] was Active. The Activity entry in the data set with MDA-MB-468 [2] is “Dde”; in the data set on MDA-MB-231 [3], “Dde”; in data set [5], “Toxic”; in the data set on MDA-MB-468 [9], “Dde”; in the data set with MDA-MB-231 [11] it was “Dde”; in the data set with MDA-MB-468 [14], “Dde”. Further, the Activity entry is “Dde” with MDA-MB-231 [18]; “Toxic” in data set [20]; “Non-Toxic” in data set [21]; “Toxic” in data set [23]; “Dde” with MDA-MB-468 [27]; “Dde” in the data set on MDA-MB-231 [32]. For the same compound, the inhibition result in the data set with Mus musculus [7], in the data set with Mus musculus [12], in the data set with Mus musculus [16], in the data set with Mus musculus [17], in the data set with MDA-MB-468 [19] and in the data set with Mus musculus [22] was “Active” each time. The inhibition result with Mus musculus [25], at Fatty acid synthase [30] and in the data set with MDA-MB-231 [31] was “Active” each time.

On to `CC1=CC(=O)c2ccccc2C1=O`, for which the result in the data set with MDA-MB-468 [33] and in the data set on MDA-MB-231 [34] was Active.

With `Cc1c(OCC(F)(F)F)ccnc1C[S+]([O-])c1nc2ccccc2[nH]1` (stereo unspecified) [LANSOPRAZOLE], the outcome with MDA-MB-468 [4], with MDA-MB-468 [6], in the data set on MDA-MB-231 [10] and in the data set with MDA-MB-231 [28] was Active. In addition, the Activity result in data set [5] is “Toxic”; with MDA-MB-468 [14], “Dde”; in the data set with MDA-MB-231 [18] it was “Dde”; in [20], “Toxic”; in data set [23] it was “Toxic”; in the data set on MDA-MB-468 [27] it was “Dde”. For the same compound, the Activity result with MDA-MB-231 [32] is “Dde”. Moreover, the inhibition entry with MDA-MB-468 [19], on Fatty acid synthase [30] and with MDA-MB-231 [31] was “Active” in each case. Moreover, the Ki (in general, the equilibrium dissociation constant of an inhibitor or competing ligand from its target) on Fatty acid synthase [35] was 1.7 µM.
